Results: EP4417602A1, “SUBSTITUTED PYRAZOLE CARBOXAMIDES, SALTS THEREOF AND THEIR USE AS HERBICIDALLY ACTIVE SUBSTANCES” (Bayer AG, priority 2023, dated 2024)

Legend:
[1] = system: ZEAMX; assay: D. Pre-emergence effects on crop plants (Tables D); format: in vivo, Zea mays; settings: crop plant
Procedure, shortened: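 Seeds sown in sandy loam and covered; WP or EC formulations sprayed onto the soil surface as aqueous suspension/emulsion with 0.5% additive, at 320 g/ha or below. Greenhouse-grown; visual damage scored after ca. 3 weeks against untreated controls (0% = as control, 100% = plants dead).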

[2] = system: DIGSA; assay: B. Herbicidal post-emergence action on harmful plants (Tables B); format: in vivo, Digitaria sanguinalis
Procedure, shortened: (§1)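 Greenhouse weeds grown in sandy loam were sprayed post-emergence at the one-leaf stage, 2-3 weeks after sowing. Compounds were applied as WP or EC in water with 0.5% additive at 600 L/ha, at 1280 g/ha or below. Visual damage was rated after about 3 weeks versus untreated plants (0-100%).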

[3] = system: ALOMY; assay: as above; format: in vivo, Alopecurus myosuroides
Protocol: (§2) Seeds of mono- and dicotyledonous weed plants were placed in plastic pots in sandy loam soil (doubly sown with in each case one species of mono- or dicotyledonous weed plants per pot), covered with soil and cultivated in a greenhouse under controlled growth conditions. 2 to 3 weeks after sowing, the test plants were treated at the one-leaf stage. The compounds of the invention, formulated in the form of wettable powders (WP) or as emulsion concentrates (EC), were applied onto the green parts of the plants as aqueous suspension or emulsion with addition of 0.5% additive at a water application rate of 600 liters per hectare (converted). After the test plants had been kept in the greenhouse under optimum growth conditions for about 3 weeks, the activity of the preparations was rated visually in comparison to untreated controls. For example, 100% activity = the plants have died, 0% activity = like control plants. Tables B1 to B12, below, show the effects of selected compounds of the general formula (I) according to table 1 on various harmful plants and an application rate corresponding to 1280 g/ha or below obtained by the experimental procedure mentioned above. Table B1a: post-emergence activity at 1280g/ha against ABUTH in %

[4] = system: ALOMY; assay: E. Herbicidal post-emergence action, weed and crop plants (Tables E); format: in vivo, Alopecurus myosuroides; settings: application rate 320 g/ha, visual assessment after ca. 3 weeks
Description: (§3) Seeds of mono- and dicotyledonous weed plants and crop plants were sown, in plastic or organic planting pots, in sandy loam, covered with soil and grown in a greenhouse under controlled growth conditions. 2 to 3 weeks after sowing, the test plants were sprayed in the single-leaf stage. The compounds according to the invention, formulated in form of wettable powders (WP) or as emulsifiable concentrates (EC), were sprayed onto the green plant parts as aqueous suspension or emulsion, with the addition of 0.5% of an additive, at an application rate of 6001 of water/ha (converted). The test plants were placed in the greenhouse for ca. 3 weeks under optimum growth conditions, and then the effect of the preparations was assessed visually in comparison with untreated controls (herbicidal effect in percent (%): 100% effect = plants have died off, 0% effect = as control plants). Tables E1 to E7 below show the effects of selected compounds of the general formula (I) according to table 1 on various harmful plants and an application rate corresponding to 320 g/ha or below obtained by the experimental procedure mentioned above. Table E1: post-emergence activity at 320g/ha against ALOMY in %

[5] = system: TRZAS; assay: D. Pre-emergence effects on crop plants (Tables D); format: in vivo, Triticum aestivum; settings: crop plant
Description: Seeds of mono- and dicotyledonous weed plants and crop plants were sown, in plastic or organic planting pots, in sandy loam and covered with soil. The compounds according to the invention, formulated in the form of wettable powders (WP) or as emulsifiable concentrates (EC), were applied to the surface of the covering soil as aqueous suspension or emulsion, with the addition of 0.5% of an additive, at an application rate of 6001 of water/ha (converted).
Following treatment, the pots were placed in a greenhouse and kept under optimum growth conditions for the test plants. The visual grading of the damage to the test plants was carried out after ca. 3 weeks in comparison to untreated controls (herbicidal effect in percent (%): 100% effect = plants have died off, 0% effect = as control plants).
Tables D1 to D5 below show the effects of various compounds of the general formula (I) according to Table 1 on various crop plants and an application rate corresponding to 320 g/ha or below obtained by the experimental procedure mentioned above in Biological Examples, Section C. Table D1a: pre-emergence activity at 320g/ha against ZEAMX in %

[6] = system: ORYZA; assay: F. Post-emergence effects on crop plants (Tables F); format: in vivo, Oryza sativa; settings: crop plant
Description: as §3, with “F1” for “E1”, “F5” for “E7”, “crop” for “harmful”, “[…]:” for “E1:”, “ZEAMX” for “ALOMY”

[7] = system: VERPE; assay: B. Herbicidal post-emergence action on harmful plants (Tables B); format: in vivo, Veronica persica
Procedure, shortened: as §1

[8] = system: LOLRI; assay: E. Herbicidal post-emergence action, weed and crop plants (Tables E); format: in vivo, Lolium rigidum; settings: application rate 320 g/ha, visual assessment after ca. 3 weeks
Description: as §3

[9] = system: AVEFA; assay: C. Herbicidal pre-emergence action, weed and crop plants (Tables C); format: in vivo, Avena fatua; settings: application rate 320 g/ha; Table C4
Description: Seeds of mono- and dicotyledonous weed plants and crop plants were sown, in plastic or organic planting pots, in sandy loam and covered with soil. The compounds according to the invention, formulated in the form of wettable powders (WP) or as emulsifiable concentrates (EC), were applied to the surface of the covering soil as aqueous suspension or emulsion, with the addition of 0.5% of an additive, at an application rate of 6001 of water/ha (converted). Following treatment, the pots were placed in a greenhouse and kept under optimum growth conditions for the test plants. The visual grading of the damage to the test plants was carried out after ca. 3 weeks in comparison to untreated controls (herbicidal effect in percent (%): 100% effect = plants have died off, 0% effect = as control plants). Tables C1 to C12 below show the effects of selected compounds of the general formula (I) according to table 1 on various harmful plants and an application rate corresponding to 320 g/ha or below obtained by the experimental procedure mentioned above. Table C1: pre-emergence activity at 320g/ha against KCHSC in %

[10] = system: ECHCG; assay: E. Herbicidal post-emergence action, weed and crop plants (Tables E); format: in vivo, Echinochloa crus-galli; settings: application rate 320 g/ha, visual assessment after ca. 3 weeks
Description: as §3

[11] = system: LOLRI; assay: B. Herbicidal post-emergence action on harmful plants (Tables B); format: in vivo, Lolium rigidum; settings: application rate 1280 g/ha; Table B3
Protocol: as §2

[12] = application rate 80 g/ha, Table D1b
[13] = application rate 1280 g/ha, Table B12a
[14] = application rate 320 g/ha, Table B9b
[15] = application rate 1280 g/ha, Table B9a
[16] = application rate 80 g/ha, Table D2b
[17] = application rate 1280 g/ha, Table B11a

| SMILES | pre-emergence activity against ZEAMX [1, 12] | pre-emergence activity against TRZAS [5, 16] | post-emergence activity against DIGSA [2, 13] | post-emergence activity against ALOMY [3, 15] | post-emergence activity against ALOMY in % [4] | post-emergence activity against ORYZA in % ([6]; application rate 80 g/ha) | post-emergence activity against ECHCG in % [10] | other results |
| --- | --- | --- | --- | --- | --- | --- | --- | --- |
| COCc1nn(C(=O)OC(C)(C)C)cc1C(=O)N1CCCC1Cc1ccccc1F (racemic) [Example I-040] | 20% | – | – | – | – | – | – | – |
| COCc1nn(C)cc1C(=O)N1CCCC1Cc1ccccc1F (single isomer, unassigned) [Example I-003] | – | – | 100% | 100% | 80% | 0% | 80% | post-emergence activity against DIGSA ([2]; application rate 80 g/ha, Table B12c): 100%; post-emergence activity against DIGSA ([2]; application rate 320 g/ha, Table B12b): 100%; post-emergence activity against VERPE ([7]; application rate 80 g/ha, Table B11c): 90%; post-emergence activity against VERPE ([7]; application rate 320 g/ha, Table B11b): 90%; post-emergence activity against VERPE [7, 17]: 90%; post-emergence activity against ALOMY ([3]; application rate 80 g/ha, Table B9c): 100%; post-emergence activity against ALOMY [3, 14]: 100%; post-emergence activity against LOLRI in % [8]: 80%; pre-emergence activity against AVEFA [9]: 90% |
| COCc1nn(C)cc1C(=O)N1CCCC1Cc1ccccc1F (racemic) [Example I-002] | – | – | – | – | – | – | 80% | pre-emergence activity against AVEFA [9]: 80% |
| CNC(=O)n1cc(C(=O)N2CCCC2Cc2ccccc2F)c(COC)n1 (racemic) [Example I-051] | – | – | – | – | 80% | – | – | – |
| COCc1c(C(=O)N2CCCC2Cc2ccccc2F)cnn1C (single isomer, unassigned) [Example I-157] | – | – | – | – | 80% | 10% | – | – |
| COCc1c(C(=O)N2CCCC2Cc2ccccc2Cl)cnn1C (racemic) [Example I-170] | – | – | – | 90% | 80% | 0% | 80% | post-emergence activity against VERPE [7, 17]: 90%; post-emergence activity against LOLRI [11]: 90%; post-emergence activity against LOLRI in % [8]: 80% |

Now from value to compound, other results behind:

| pre-emergence activity against ZEAMX [1, 12] | pre-emergence activity against TRZAS [5, 16] | SMILES | post-emergence activity against DIGSA [2, 13] | post-emergence activity against ALOMY [3, 15] | post-emergence activity against ALOMY in % [4] | post-emergence activity against ORYZA in % ([6]; application rate 80 g/ha) | post-emergence activity against ECHCG in % [10] | other results |
| --- | --- | --- | --- | --- | --- | --- | --- | --- |
| 0% | 0% | Cn1cc(C(=O)N2CCCC2Cc2ccccc2F)c(COc2ccccc2)n1 (racemic) [Example I-006] | 90% | 90% | 90% | 0% | – | post-emergence activity against ALOMY [3, 14]: 90%; pre-emergence activity against TRZAS ([5]; application rate 320 g/ha, Table D2a): 20%; post-emergence activity against ORYZA in % ([6]; application rate 320 g/ha): 0% |
| 0% | – | C=C(c1ccccc1F)C1CCCN1C(=O)c1cn(C)nc1COC (racemic) [Example I-023] | 90% | – | – | – | – | post-emergence activity against LOLRI [11]: 90% |
| 10% | 10% | Cn1cc(C(=O)N2CCCC2Cc2ccc(F)cc2F)c(COc2ccccc2)n1 (racemic) [Example I-008] | – | 90% | – | 0% | – | pre-emergence activity against ZEAMX ([1]; application rate 320 g/ha, Table D1a): 20%; post-emergence activity against ORYZA in % ([6]; application rate 320 g/ha): 0% |
| 0% | 0% | COCc1nn2c(c1C(=O)N1CCCC1Cc1ccccc1F)CCC2 (racemic) [Example I-022] | – | – | – | – | – | – |
